Laboratory results taken from publication PMC4556614 (PLoS ONE, 2015).

What was measured:
OCT2 [1] = target: T1, OCT2 (Homo sapiens, UniProt O15244); assay: in vitro; details: for IC50 values, OCT2-mediated metformin transport (in words): potent inhibitors, confirmed previous findings [19]-[21]
[2] = ref 16 (Regenthal et al.), cited from earlier work; for Cmax,u: Cmax of unbound drug in humans; for Cmax: maximum steady-state plasma concentration in humans
[3] = cited from earlier work
OCT2 [4] = target: T1, OCT2; assay: Inhibition of OCT2-mediated [3H]MPP+ uptake in HEK-OCT2 cells; details: for % Inhibition of OCT2-dependent MPP+ uptake at 20 µM (mean ± SEM): test drug 20 µM
OCT2 [5] = target: T1, OCT2; assay: Time-dependent substrate uptake into HEK-OCT2 and vector control cells; assay type: cell-based; design: expressed in transfected cells; host or cells: HEK 293 cells, stably transfected (HEK-OCT2); vector control HEK-VC; details: metformin 1000 μM; for Time until OCT2-mediated uptake reached steady-state: HEK-OCT2 cells
Method: For the transport assays HEK cell lines stably transfected with human OCT2 (HEK-OCT2) or the vector only (HEK-VC) were used. The HEK-OCT2 cell line was established and characterized previously. HEK-OCT2 and HEK-VC cells were seeded in poly-D-lysine (Sigma Aldrich, Taufkirchen, Germany) coated 48-well-plates at a density of 1.2 x 10^5 cells/well. […] In a total incubation volume of 125 μL the final concentrations of the test drugs were 20 or 200 μM. […] Uptake was stopped by washing the cells three times with ice-cold uptake buffer. Afterwards, cells were lysed with 5 mM Tris buffer (pH 7.3) containing 0.1% Triton X-100. The intracellular accumulation of radioactivity was determined by liquid scintillation counting (PerkinElmer, Rodgau-Jügesheim, Germany) and protein concentration of each lysate was measured with bicinchonic acid assay (BCA Protein Assay Kit, Thermo Fisher Scientific, Waltham, MA, USA). We performed two to eight experiments each on at least two separate days, i.e., n = 4–16. […] The percentage of uptake inhibition was calculated as: Inhibition (%) = 100 –(V / V 0 * 100), where V and V 0 are the net uptake rates with and without test drug.
Data are presented as the mean ± standard error (4–8 experiments each on two to four separate days, i.e., n = 8–29).

OCT2 [6] = system: OCT2; design: method as in earlier work; details: drug 20 μM; HEK 293 cells overexpressing OCT2; ref 7 (Kido et al.); cited from earlier work
OCT2 [7] = details: cited from earlier work
[8] = MPP+ 50 μM, 3 min, net uptake HEK-OCT2 minus HEK-VC
[9] = test drug 200 µM, MPP+ 50 μM, 3 min, net uptake HEK-OCT2 minus HEK-VC
[10] = coadministration with pantoprazole

T1 sequence (O15244 whole entry): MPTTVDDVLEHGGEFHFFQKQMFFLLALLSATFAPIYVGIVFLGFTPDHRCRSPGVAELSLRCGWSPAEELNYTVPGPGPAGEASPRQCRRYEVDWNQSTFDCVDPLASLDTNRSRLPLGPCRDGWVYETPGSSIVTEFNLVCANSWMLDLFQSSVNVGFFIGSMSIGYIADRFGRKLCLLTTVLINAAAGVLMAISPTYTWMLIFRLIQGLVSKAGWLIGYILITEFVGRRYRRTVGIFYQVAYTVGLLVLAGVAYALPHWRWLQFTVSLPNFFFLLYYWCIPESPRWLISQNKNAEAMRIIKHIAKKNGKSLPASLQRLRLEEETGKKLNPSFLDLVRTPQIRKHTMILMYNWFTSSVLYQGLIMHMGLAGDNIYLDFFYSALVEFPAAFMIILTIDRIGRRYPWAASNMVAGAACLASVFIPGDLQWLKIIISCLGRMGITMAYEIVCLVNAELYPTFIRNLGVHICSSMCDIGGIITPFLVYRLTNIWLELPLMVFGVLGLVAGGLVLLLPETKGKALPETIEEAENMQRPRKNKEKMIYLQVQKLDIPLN

| SMILES | % Inhibition of OCT2-dependent MF uptake at 200 µM (mean ± SEM) (OCT2 [1]; human, pH 7.3) | IC50 (OCT2 [1]; human, pH 7.3) | Cmax,u [2] | Cmax [2] | % Inhibition of OCT2-dependent MPP+ uptake at 20 µM (mean ± SEM) (OCT2 [4]; [8]) | % Inhibition of OCT2-dependent MPP+ uptake at 200 µM (mean ± SEM) (OCT2 [4]; [9]) | Inhibition of OCT2-mediated ASP+ uptake (OCT2 [6]) | further results |
| --- | --- | --- | --- | --- | --- | --- | --- | --- |
| N[C@@H](CC(=O)N1CCn2c(nnc2C(F)(F)F)C1)Cc1cc(F)c(F)cc1F [Sitagliptin] | 97.5 ± 0.1 | 7410 nM | 1500 nM | 2300 nM | -8.2 ± 7.8% | 22.7 ± 6.0% | – | % Inhibition of OCT2-dependent MF uptake at 20 µM (mean ± SEM) (OCT2 [1]; human, pH 7.3): 85.9 ± 1.1; IC50 values, OCT2-mediated metformin transport (in words) (OCT2 [1]): low micromolar range; Effect on steady-state pharmacokinetics of either agent ([3]; co-administration of sitagliptin and metformin, patients with type 2 diabetes): did not meaningfully alter |
| C[n+]1ccc(-c2ccccc2)cc1 [MPP^+, 1-methyl-4-phenylpyridinium] | – | – | – | – | – | – | – | Uptake ratio OCT2 cells vs. vector control cells (OCT2 [5]; MPP+ 50 μM, 3 min, no inhibitor): 3.2; Time until OCT2-mediated uptake reached steady-state (OCT2 [5]; MPP+ 50 μM): approximately 15 min |
| CCCc1nc2c(C)cc(-c3nc4ccccc4n3C)cc2n1Cc1ccc(-c2ccccc2C(=O)O)cc1 [Telmisartan] | 99.2 ± 0.2 | – | – | – | – | – | more than 50% | % Inhibition of OCT2-dependent MPP+ uptake at 200 µM (mean ± SEM) (OCT2 [4]; human, pH 7.3): 93.3 ± 2.8 |
| COc1ccnc(C[S+]([O-])c2nc3ccc(OC(F)F)cc3[nH]2)c1OC (stereo not drawn) [Pantoprazole] | 98.9 ± 0.6 | 560 nM | 230 nM | 11400 nM | – | – | – | AUC for metformin greater following coadministration [3, 10]: 15%; Cmax for metformin greater following coadministration [3, 10]: 15%; % Inhibition of OCT2-dependent MPP+ uptake at 200 µM (mean ± SEM) (OCT2 [4]; human, pH 7.3): 101.7 ± 4.4 |
| CN/C(=N/CCSCc1nc[nH]c1C)NC#N [Cimetidine] | – | – | – | – | – | – | – | Affinity for MATEs compared with OCT2 (OCT2 [7]): higher affinity for MATEs than for OCT2; Inhibitor of OCT2 (in words) (OCT2 [7]): rather weak inhibitor |
| CN(C)C(=N)N=C(N)N [Metformin] | – | – | – | – | – | – | – | Time until OCT2-mediated uptake reached steady-state (OCT2 [5]; MPP+ 50 μM): approximately 15 min; Uptake of metformin in vector control cells (OCT2 [5]; 3 min, HEK-VC, no inhibitor): 227 ± 22.1 pmol/mg/min; Uptake of metformin in HEK-OCT2 cells (OCT2 [5]; 3 min, no inhibitor): 5946 ± 294.0 pmol/mg/min |
| CN(C)CCC=C1c2ccccc2COc2ccccc21 [Doxepin] | 99.3 ± 0.7 | 250 nM | 250 nM | 1300 nM | – | – | more than 50% | – |
| O=C(O[C@H]1C[C@H]2CC[C@@H](C1)[N+]21CCCC1)C(O)(c1ccccc1)c1ccccc1 [Trospium chloride] | 98.8 ± 0.4 | 70 nM | 10 nM | 30 nM | 83.2 ± 2.2% | 96.7 ± 0.7% | – | Effect on metformin renal clearance and steady-state pharmacokinetics ([3]; trospium chloride coadministration, healthy volunteers): did not alter |
| CN(C)CCC=C1c2ccccc2CCc2ccccc21 [Amitriptyline] | 101.7 ± 2.2% | 510 nM | 40 nM | 1100 nM | 58.4 ± 2.8% | 97.8 ± 0.6% | more than 50% | Cmax,u / IC50 (OCT2 [1]): 0.08; IC50 values, OCT2-mediated metformin transport (in words) (OCT2 [1]): low micromolar range; % Inhibition of OCT2-dependent MPP+ uptake at 20 µM (mean ± SEM) (OCT2 [4]; MPP+ 50 μM, 3 min, net uptake HEK-OCT2 minus HEK-VC, listed as amitriptyline): more than 50% |
| CC(CN(C)C)CN1c2ccccc2CCc2ccccc21 (stereo not drawn) [Trimipramine] | 100.0 ± 0.8 | 440 nM | 60 nM | 610 nM | 51.0 ± 10.2% | 98.6 ± 1.2% | more than 50% | % Inhibition of OCT2-dependent MPP+ uptake at 20 µM (mean ± SEM) (OCT2 [4]; MPP+ 50 μM, 3 min, net uptake HEK-OCT2 minus HEK-VC, listed as trimipramine): more than 50% |
| COc1ccc2[nH]c([S+]([O-])Cc3ncc(C)c(OC)c3C)nc2c1 (stereo not drawn) [Omeprazole] | 107.4 ± 4.3 | – | – | – | 56.0 ± 4.0% | 93.0 ± 0.9% | more than 50% | IC50 values, OCT2-mediated metformin transport (in words) (OCT2 [1]): low micromolar range; % Inhibition of OCT2-dependent MPP+ uptake at 20 µM (mean ± SEM) (OCT2 [4]; MPP+ 50 μM, 3 min, net uptake HEK-OCT2 minus HEK-VC, listed as omeprazole): more than 50% |
| CN(C)CCCN1c2ccccc2CCc2ccc(Cl)cc21 [Clomipramine] | 99.5 ± 3.7 | – | – | – | 90.3 ± 1.5% | 98.8 ± 3.0% | more than 50% | – |
